Laboratory results reported in patent US20170246137A1, “SULFESTROL FOR TREATING CANCER” (CHAMAELEO PHARMA BVBA, priority 2012, published 2017).

Assays:
MCF7 = assay: In vitro direct cytotoxicity, Cell titer Blue viability, 72 hrs
Method: (§1) Cells were maintained in vitro in RPMI 1640 containing 10% (v/v) heat inactivated FBS and 2 mM L-glutamine (growth media) at 37° C. in 5% CO2 and humidified conditions. Cells were harvested, washed, resuspended into growth medium and counted. The cells were re-suspended into assay media (RPMI 1640+1% (v/v) heat inactivated FBS+ and 2 mM L-glutamine) at 0.5-1×10^5 cells/ml (dependent upon cell type) and plated into 96-well assay plates (Corning, black-wall plates) in 50 ul/well aliquots.
(§2) Plates were incubated overnight at 37° C. in 5% humidified CO2 prior to addition of the compounds. […] Stocks of all compounds were then serially diluted. Final concentrations to which cells were exposed were 300, 150, 75, 37.5, 18.75, 9.4, 4.7, 2.3, 1.2, 0.6 μM. Positive control was Cisplatin. Cisplatin was diluted in 1% FBS media to give a stock concentration of 1 mM. Cisplatin stock was then serially diluted. Final concentrations to which cells were exposed were 100, 50, 25, 12.5, 6.3, 3.1, 1.6, 0.8, 0.4, 0.2 μM.
(§3) Plates were incubated for 72 hrs at 37° C. in 5% humidified CO2 after addition of the compounds. Viability of the cells was assessed with the Cell titer Blue™ (Promega) assay. 10 μl of Cell titer Blue™ reagents was added to each test/blank well. Plates were incubated 3 h at 37° C. in 5% humidified CO2 prior to analysis. Fluorescence was measured with a Flex II station plate reader. Excitation wavelength was 570 nm, emission wave length was 600 nm, cut off was 590 nm. Raw data was processed by GraphPad Prism to calculate mean, standard deviation and IC50 values.

MDA-MB-231 = assay: as above
Method: as §1, §2, §3

For “4-(4-(4-oxidophenyl)hex-3-en-3-yl)phenyl sulfate [Mono-Sulfestrol]”, the “cytotoxicity in vitro (in words)” value (MCF7; MCF7) was “cytotoxic”, the IC50 (MCF7; read-out: IC50 value, MCF7, hormone-dependent breast cancer cell line, 72 hrs) was 85 µM and the “cytotoxicity in vitro (in words)” value (MDA-MB-231; MDA-MB231) was “cytotoxic”. For the same substance, the IC50 (MDA-MB-231; read-out: IC50 value, MDA-MB-231, triple negative breast cancer cell line, 72 hrs) was 185 µM.
